# Results taken from patent US11214803B2, “Modulators of YAP1 expression” (Ionis Pharmaceuticals, Inc., priority 2019, dated 2022).
# Strand notation (5' to 3'): a small letter for the sugar, then the base; units joined by * are phosphorothioate-linked, units joined directly phosphodiester-linked; [ ] holds rarer units or linkages, { } end groups; capitals alone tell only the bases. k = constrained ethyl (cEt); [5mC] = 5-methylcytosine; d = 2'-deoxy (DNA)
# Test system: Yap1 mRNA
# Assay: Antisense inhibition of human Yap1 in A-431 cells by cEt gapmers, single dose (Example 4, RTS4814)
# Assay type: cell-based
# Settings: Table 14; A-431 cells, 5,000 cells per well, free uptake, 2,000 nM, approximately 48 hours; RTS4814; normalized to RIBOGREEN; Yap1 mRNA relative to untreated control; * = targets amplicon region of primer probe set
# Outline: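 Values are % UTC: Yap1 mRNA by quantitative RT-PCR, normalized to RIBOGREEN total RNA. Cells were exposed ~48 h to 2,000 nM oligonucleotide without transfection. Oligonucleotides were 16-nucleoside gapmers with three cEt nucleosides per wing, ten-deoxy gap, P=S linkages throughout.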
row,Substance,YAP1 (% UTC)
1,1076096 (kA*kA*kT*dA*dA*dT*dA*dA*dA*d[5mC]*dG*dA*dT*kT*k[5mC]*kT; antisense) [Compound 1076096],71
2,1074592 (antisense kG*kG*kA*dG*d[5mC]*dA*dA*dG*dT*d[5mC]*dT*dT*dG*kT*kA*kA) [Compound 1074592],23
3,1074816 (kG*kA*kA*dT*dA*dT*dT*dG*d[5mC]*d[5mC]*dA*d[5mC]*d[5mC]*k[5mC]*kA*k[5mC]; antisense) [Compound 1074816],15
4,1075392 (kG*kA*k[5mC]*dG*dG*dG*dT*dG*dA*dA*d[5mC]*d[5mC]*dT*kG*kT*kT; antisense) [Compound 1075392],95
5,1076416 (kA*k[5mC]*k[5mC]*dG*dA*dA*dA*dT*dG*dA*dT*dA*d[5mC]*kT*kG*kA; antisense) [Compound 1076416],8
6,1075008 (antisense kT*kA*kA*dT*d[5mC]*dG*dA*dA*d[5mC]*dA*dT*dT*dG*kT*kG*kT) [Compound 1075008],61
7,1074752 (k[5mC]*kA*kT*dT*dA*dG*dG*dA*dA*d[5mC]*dA*dA*dG*kG*kA*k[5mC]; antisense) [Compound 1074752],10
8,1076352 (kG*kA*kT*dA*dA*d[5mC]*d[5mC]*d[5mC]*dT*dG*dA*dA*dA*k[5mC]*kA*kA; antisense) [Compound 1076352],37
9,1075968 (kT*kA*kT*dT*dT*dA*dA*dG*d[5mC]*d[5mC]*dA*dA*dA*k[5mC]*k[5mC]*kG; antisense) [Compound 1075968],5
10,1074560 (antisense k[5mC]*k[5mC]*kA*dA*dT*d[5mC]*dG*dA*dG*dA*d[5mC]*dT*dT*kA*kA*kA) [Compound 1074560],3
11,1075200 (antisense k[5mC]*kA*kT*dA*dT*dT*dA*dA*d[5mC]*dT*dA*dG*dA*kT*kG*kA) [Compound 1075200],120

# Same assay, conditions: Table 15; A-431 cells, 5,000 cells per well, free uptake, 2,000 nM, approximately 48 hours; RTS4814; normalized to RIBOGREEN; Yap1 mRNA relative to untreated control; * = targets amplicon region of primer probe set
row,Substance,YAP1 (% UTC)
1,1075681 (kT*kA*kA*dT*dT*dA*dT*dT*dA*d[5mC]*d[5mC]*d[5mC]*d[5mC]*kT*kT*k[5mC]; antisense) [Compound 1075681],37
2,1074849 (kT*kG*kT*dT*dA*dT*dG*dA*dT*dA*dG*dG*d[5mC]*kA*k[5mC]*kA; antisense) [Compound 1074849],18
3,1074817 (k[5mC]*kT*kG*dA*dA*dT*dA*dT*dT*dG*d[5mC]*d[5mC]*dA*k[5mC]*k[5mC]*k[5mC]; antisense) [Compound 1074817],8
4,1074145 (antisense kA*kA*kG*d[5mC]*dG*dG*d[5mC]*dG*dA*d[5mC]*dG*dG*d[5mC]*kT*kG*k[5mC]) [Compound 1074145],73
5,1076545 (antisense kA*kA*k[5mC]*d[5mC]*dA*dA*d[5mC]*d[5mC]*dT*dT*d[5mC]*d[5mC]*d[5mC]*kT*kA*k[5mC]) [Compound 1076545],68
6,1076065 (k[5mC]*kT*kT*dT*dA*dG*dT*dA*dA*d[5mC]*dA*d[5mC]*dG*kA*kA*kT; antisense) [Compound 1076065],36

# Same assay, conditions: Table 16; A-431 cells, 5,000 cells per well, free uptake, 2,000 nM, approximately 48 hours; RTS4814; normalized to RIBOGREEN; Yap1 mRNA relative to untreated control cells
row,Substance,YAP1 (% UTC)
1,1075042 (antisense kT*kT*kA*dA*dA*dA*dG*dG*dT*dT*dT*dG*dG*k[5mC]*kA*k[5mC]) [Compound 1075042],17
2,1076482 (antisense k[5mC]*kT*kT*dT*dA*dG*dA*d[5mC]*dT*dA*dA*dG*dT*kA*kA*kG) [Compound 1076482],107
3,1076162 (kA*kT*kT*dT*dA*d[5mC]*dT*dT*dG*dG*d[5mC]*dA*dA*k[5mC]*kT*k[5mC]; antisense) [Compound 1076162],9
4,1074402 (antisense kT*kT*kA*dT*dG*dG*dA*dA*dA*dT*dT*dT*d[5mC]*k[5mC]*kG*kG) [Compound 1074402],25
5,1074274 (antisense kG*kT*kT*d[5mC]*dT*dT*dA*dT*dG*dG*dT*dT*dT*kA*kT*kA) [Compound 1074274],4
6,1074562 (antisense kG*kA*kA*dT*dT*d[5mC]*d[5mC]*dA*dA*dT*d[5mC]*dG*dA*kG*kA*k[5mC]) [Compound 1074562],30
7,1074946 (antisense k[5mC]*k[5mC]*kA*dA*dA*dA*d[5mC]*d[5mC]*d[5mC]*dT*dT*dT*dG*kG*kT*k[5mC]) [Compound 1074946],109
8,1075714 (kA*kA*kT*dT*dA*d[5mC]*dA*dA*dT*d[5mC]*dA*dA*d[5mC]*k[5mC]*kT*kT; antisense) [Compound 1075714],42
9,1074658 (antisense kG*kG*k[5mC]*d[5mC]*dA*dT*dT*dT*d[5mC]*d[5mC]*d[5mC]*d[5mC]*d[5mC]*k[5mC]*kA*kG) [Compound 1074658],89
10,1076034 (kA*kA*kT*dT*dA*dG*dA*dA*dA*d[5mC]*dT*dT*dG*kG*k[5mC]*k[5mC]; antisense) [Compound 1076034],74
11,1076546 (antisense k[5mC]*k[5mC]*k[5mC]*d[5mC]*dA*dA*d[5mC]*d[5mC]*dT*dG*dA*dG*dG*kA*kG*k[5mC]) [Compound 1076546],94
12,1075298 (kA*kT*k[5mC]*dT*d[5mC]*dG*dG*dA*dA*dA*dT*dT*dT*kA*kA*kA; antisense) [Compound 1075298],128
13,1074242 (antisense kA*kG*kA*dA*dG*dA*dT*dG*dT*d[5mC]*dT*dT*dT*kG*k[5mC]*k[5mC]) [Compound 1074242],56
14,1075906 (k[5mC]*k[5mC]*kT*d[5mC]*dA*dA*dT*dA*d[5mC]*dA*dG*dA*dT*kG*kA*kA; antisense) [Compound 1075906],39

# Same assay, conditions: Table 17; A-431 cells, 5,000 cells per well, free uptake, 2,000 nM, approximately 48 hours; RTS4814; normalized to RIBOGREEN; Yap1 mRNA relative to untreated control cells
row,Substance,YAP1 (% UTC)
1,1074467 (k[5mC]*kA*k[5mC]*d[5mC]*dG*dA*d[5mC]*d[5mC]*d[5mC]*dT*dG*d[5mC]*d[5mC]*kA*kA*kA; antisense) [Compound 1074467],31
2,1074371 (antisense kG*kT*kT*dG*dA*dT*dA*dG*dT*dA*dT*d[5mC]*dA*k[5mC]*k[5mC]*kT) [Compound 1074371],31
3,1074659 (antisense k[5mC]*kT*kA*dA*dA*dA*d[5mC]*dT*d[5mC]*d[5mC]*dA*dT*d[5mC]*kT*kG*k[5mC]) [Compound 1074659],12
4,1076291 (kG*kA*kT*dT*dA*dA*dT*dG*dG*dT*dG*dG*d[5mC]*kA*kT*kT; antisense) [Compound 1076291],4
5,1075939 (k[5mC]*kT*kT*dG*dA*dA*dT*dA*dT*dA*dT*dG*dG*kG*kT*kT; antisense) [Compound 1075939],6
6,1075907 (kA*kA*kT*dT*dA*d[5mC]*dT*dA*d[5mC]*dT*dG*dG*d[5mC]*k[5mC]*kA*kT; antisense) [Compound 1075907],55

# Same assay, conditions: Yap1 mRNA remaining as percent of untreated control; 3-10-3 cEt gapmers; A-431 cells; Table 36
row,Substance,YAP1 (% UTC)
1,1074326 (antisense kA*k[5mC]*kG*d[5mC]*dA*dG*dG*dG*d[5mC]*dT*dA*dA*d[5mC]*kT*k[5mC]*k[5mC]) [compound 1074326],36
2,1075382 (antisense kA*kT*kT*dA*dT*dT*dA*d[5mC]*d[5mC]*d[5mC]*dT*dA*d[5mC]*kT*k[5mC]*kA) [compound 1075382],33
3,1074390 (k[5mC]*kT*kG*d[5mC]*dA*dG*dA*d[5mC]*dT*dT*dG*dG*d[5mC]*kA*kT*k[5mC]; antisense) [compound 1074390],64
4,1074774 (k[5mC]*kA*kA*dG*dA*dA*dT*dA*d[5mC]*d[5mC]*d[5mC]*dA*dG*kT*kT*kA; antisense) [compound 1074774],16
5,1075734 (kA*kG*kG*d[5mC]*dA*dA*dT*dA*dA*d[5mC]*d[5mC]*dT*d[5mC]*kG*kA*kG; antisense) [compound 1075734],26
6,1075414 (antisense k[5mC]*kA*kT*dA*d[5mC]*dT*dA*dA*dT*d[5mC]*d[5mC]*d[5mC]*dT*k[5mC]*kT*kT) [compound 1075414],41
7,1074262 (antisense kG*k[5mC]*k[5mC]*dG*dA*dG*dT*dT*d[5mC]*dA*dT*d[5mC]*dA*kT*kA*kT) [compound 1074262],48

# Same assay, conditions: Yap1 mRNA remaining as percent of untreated control; 3-10-3 cEt gapmers; A-431 cells; Table 37
row,Substance,YAP1 (% UTC)
1,1074295 (antisense kT*kG*kG*dT*dT*dG*dG*dA*dG*dT*dT*dG*d[5mC]*kT*kG*k[5mC]) [compound 1074295],15
2,1074583 (DNA kG*kT*kA*dA*dA*d[5mC]*d[5mC]*dA*d[5mC]*dT*dA*dT*dA*kA*kA*kG; antisense) [compound 1074583],30
3,1075671 (kG*kA*kT*dA*dT*dA*dT*dA*dT*dG*dA*dT*dG*kG*kA*k[5mC]; antisense) [compound 1075671],37
4,1075031 (antisense kA*kT*kT*dT*dA*dA*dT*dA*dT*dT*d[5mC]*dG*dA*k[5mC]*kA*k[5mC]) [compound 1075031],52
5,1075575 (antisense kT*kT*kA*d[5mC]*dA*dA*d[5mC]*dA*d[5mC]*dA*dA*dG*dT*k[5mC]*kT*kA) [compound 1075575],55
